Patent publication US12583866B2, “Pyrido[2,3-b][1,4]oxazines or tetrahydropyrido[2,3-b][1,4]oxazepines as IAP antagonists” (BEIGENE, LTD., priority 2020, dated 2026)
Counter-ions that a name gives are not always drawn.

Legend:
[1] = molecular target: T1, recombinant human cIAP1-BIR3 protein (Homo sapiens, UniProt Q13490); assay: Recombinant human c-IAP1-BIR3 biochemical assay (HTRF, peptide displacement); conditions: 1.2 nM cIAP1-BIR3, 3 nM AbuRPF-K(5-Fam)-NH2 peptide, read-out: Protein binding IC50 (nM) c-IAP1
T1 construct: recombinant human cIAP1-BIR3 protein; purchased Reaction biology APT-11-370
Method: I. Recombinant human c-IAP1-BIR3 biochemical assay
(§1) Compounds disclosed herein were tested for blocking of recombinant human cIAP1-BIR3 protein (Cat: APT-11-370, Reaction biology) with its peptide in an assay based on Homogeneous Time Resolved Fluorescence. 1.2 nM recombinant human cIAP1-BIR3 protein was pre-incubated with a serial dilution of compounds disclosed herein (maximum concentration is 10 uM, 4-fold serially diluted, 10 points) at room temperature for 1 hour in an assay buffer containing 20 mM HEPES, pH 7.5, 50 mM NaCl, 0.005% Tween-20, 1 mM DTT. Then 3 nM AbuRPF-K (5-Fam)-NH2 (Cat: 709702, GL Biochem) was added to plate incubated at room temperature for 1 hour. Mab Anti-6His Tb cryptate Gold (Cat: 61HI2TLB, Cisbio Bioassays) was added to plate and further incubated at room temperature for 1 hour. The HTRF signals (ex337 nm, em520 nm/490 nm) were read on BMG PHERAstar FS instrument. The inhibition percentage of cIAP1-BIR3 interaction with its peptide in presence of increasing concentrations of compounds was calculated based on the ratio of fluorescence at 520 nm to that at 490 nm. The IC50 for each compound was derived from fitting the data to the four-parameter logistic equation by Dotmatics and summarized in table 1.

[2] = molecular target: T2, recombinant human cIAP2-BIR3 protein (Homo sapiens, UniProt Q13489); assay: Recombinant human c-IAP2-BIR3 biochemical assay (HTRF, peptide displacement); conditions: 3.7 nM cIAP2-BIR3, 3.7 nM AbuRPF-K(5-Fam)-NH2 peptide, read-out: Protein binding IC50 (nM) c-IAP2
T2 construct: recombinant human cIAP2-BIR3 protein; purchased Reaction biology APT-11-372
Method: II. Recombinant Human c-IAP2-BIR3 Biochemical Assay
as §1, with “human cIAP2-BIR3” for “human cIAP1-BIR3”, “(Cat: APT-11-372,” for “(Cat: APT-11-370,”, “Fluorescence. 3.7” for “Fluorescence. 1.2”, “Then 3.7” for “Then 3”, “nM AbuRPF-K(5-Fam)-NH2” for “nM AbuRPF-K (5-Fam)-NH2”, “of cIAP2-BIR3” for “of cIAP1-BIR3”

[3] = molecular target: T3, recombinant human XIAP-BIR3 protein (Homo sapiens, UniProt P98170); assay: Recombinant human XIAP-BIR3 biochemical assay (HTRF, peptide displacement); conditions: 3.7 nM XIAP-BIR3, 7.6 nM AbuRPF-K(5-Fam)-NH2 peptide, read-out: Protein binding IC50 (nM) XIAP
T3 construct: recombinant human XIAP-BIR3 protein; purchased Reaction biology APT-11-374
Method: III. Recombinant Human XIAP-BIR3 Biochemical Assay
as §1, with “human XIAP-BIR3” for “human cIAP1-BIR3”, “(Cat: APT-11-374,” for “(Cat: APT-11-370,”, “Fluorescence. 3.7” for “Fluorescence. 1.2”, “Then 7.6” for “Then 3”, “nM AbuRPF-K(5-Fam)-NH2” for “nM AbuRPF-K (5-Fam)-NH2”, “of XIAP-BIR3” for “of cIAP1-BIR3”

T3 sequence (P98170 241-356 limits assumed): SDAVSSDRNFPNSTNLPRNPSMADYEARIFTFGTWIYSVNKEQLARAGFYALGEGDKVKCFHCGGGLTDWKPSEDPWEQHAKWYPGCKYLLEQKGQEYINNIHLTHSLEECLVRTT
T1 sequence (Q13490 253-363 limits assumed): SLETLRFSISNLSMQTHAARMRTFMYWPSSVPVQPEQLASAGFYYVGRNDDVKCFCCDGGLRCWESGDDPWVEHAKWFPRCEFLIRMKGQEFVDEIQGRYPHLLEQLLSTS
T2 sequence (Q13489 238-349 limits assumed): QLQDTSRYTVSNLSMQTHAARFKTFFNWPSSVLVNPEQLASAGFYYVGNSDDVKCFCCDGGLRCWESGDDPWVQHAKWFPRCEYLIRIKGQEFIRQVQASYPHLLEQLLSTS

SMILES	IC50 [1] [nM]	IC50 [2] [nM]	IC50 [3] [nM]
C[C@@H]1CN(CC(=O)N2c3cc(Cc4ccc(F)cc4)cnc3OC[C@@H]2C)[C@@H](CN2CCOC[C@H]2C)CN1 [Compound 19A, 1-((S)-7-(4-fluorobenzyl)-2-methyl-2,3-dihydro-1H-pyrido[2,3-b][1,4]oxazin-1-yl)-2-((2R,5R)-5-methyl-2-(((R)-3-methylmorpholino)methyl)piperazin-1-yl)ethan-1-one]	0.13	0.25	2.7
C[C@@H]1CN(CC(=O)N2CCOc3nc(O)c(Cc4ccc(F)cc4)cc32)[C@@H](CN2CCOC[C@H]2C)CN1 [Compound 9, 1-(7-(4-fluorobenzyl)-6-hydroxy-2,3-dihydro-1H-pyrido[2,3-b][1,4]oxazin-1-yl)-2-((2R,5R)-5-methyl-2-(((R)-3-methylmorpholino)methyl)piperazin-1-yl)ethan-1-one]	0.85	1.3	10
CCOc1nc2c(cc1Cc1ccc(F)cc1)N(C(=O)CN1C[C@@H](C)NC[C@@H]1CN1CCOC[C@H]1C)CCO2 [Compound 17, 1-(6-ethoxy-7-(4-fluorobenzyl)-2,3-dihydro-1H-pyrido[2,3-b][1,4]oxazin-1-yl)-2-((2R,5R)-5-methyl-2-(((R)-3-methylmorpholino)methyl)piperazin-1-yl)ethan-1-one]	0.53	1.3	5.4
CC1CN(C(=O)CN2C[C@@H](C)NC[C@@H]2CN2CCOC[C@H]2C)c2cc(Cc3ccc(F)cc3)c(Br)nc2O1 (stereo partly drawn) [Compound 11, 1-(6-bromo-7-(4-fluorobenzyl)-3-methyl-2,3-dihydro-1H-pyrido[2,3-b][1,4]oxazin-1-yl)-2-((2R,5R)-5-methyl-2-(((R)-3-methylmorpholino)methyl)piperazin-1-yl)ethan-1-one]	8	17	220
C[C@@H]1CN(CC(=O)N2c3cc(Cc4ccc(F)cc4)c(CO)nc3OC[C@@H]2C)[C@@H](CN2[C@H](C)COC[C@H]2C)CN1 [Compound 24]	0.15	0.24	4.49
C[C@@H]1CN(CC(=O)N2c3cc(Cc4ccc(F)cc4)c(CN4CCOCC4)nc3OC[C@@H]2C)[C@@H](CN2[C@H](C)COC[C@H]2C)CN1 [Compound 92]	0.37	0.53	8.7
C[C@@H]1CN(CC(=O)N2c3cc(Cc4ccc(F)cc4)c(CO)nc3OC[C@@H]2C)[C@@H](CN2C3CCC2COC3)CN1 [Compound 86]	0.89	0.95	15
C[C@@H]1CN(CC(=O)N2c3cc(Cc4ccc(F)cc4)c(C(=O)NC[C@@H]4CCCO4)nc3OC[C@@H]2C)[C@@H](CN2[C@H](C)COC[C@H]2C)CN1 [Compound 93]	0.19	0.46	4.6
C[C@@H]1CN(CC(=O)N2c3cc(Cc4ccc(F)cc4)cnc3OCC23CC3)[C@@H](CN2CCOC[C@H]2C)CN1 [Compound 20, 1-(7′-(4-fluorobenzyl)-1′H,3′H-spiro[cyclopropane-1,2′-pyrido[2,3-b][1,4]oxazin]-1′-yl)-2-((2R,5R)-5-methyl-2-(((R)-3-methylmorpholino)methyl)piperazin-1-yl)ethan-1-one hydrochloride]	9.9	25	140
C[C@@H]1CN(CC(=O)N2c3cc(Cc4ccc(F)cc4)cnc3OC[C@@H]2C2CCCCC2)[C@@H](CN2CCOC[C@H]2C)CN1 [Compound 42, 1-((S)-2-cyclohexyl-7-(4-fluorobenzyl)-2,3-dihydro-1H-pyrido[2,3-b][1,4]oxazin-1-yl)-2-((2R,5R)-5-methyl-2-(((R)-3-methylmorpholino)methyl)piperazin-1-yl)ethan-1-one]	0.34	0.52	25

Now from value to molecule:

IC50 [1] [nM]	IC50 [2] [nM]	IC50 [3] [nM]	SMILES
0.21	0.23	3.75	C[C@@H]1CN(CC(=O)N2c3cc(Cc4ccc(F)cc4)c(C(=O)NC[C@H]4CCOC4)nc3OC[C@@H]2C)[C@@H](CN2[C@H](C)COC[C@H]2C)CN1 [Compound 96, (S)-1-(2-((2R,5R)-2-(((3R,5R)-3,5-dimethylmorpholino)methyl)-5-methylpiperazin-1-yl)acetyl)-7-(4-fluorobenzyl)-2-methyl-N—(((R)-tetrahydrofuran-3-yl)methyl)-2,3-dihydro-1H-pyrido[2,3-b][1,4]oxazine-6-carboxamide]
0.19	0.36	7.7	C[C@@H]1CN(CC(=O)N2c3cc(Cc4ccc(F)cc4)c(CN4CC(O)C4)nc3OC[C@@H]2C)[C@@H](CN2[C@H](C)COC[C@H]2C)CN1 [Compound 114]
0.68	0.72	20	C[C@@H]1CN(CC(=O)N2c3cc(Cc4ccc(F)cc4)c(CO)nc3OC[C@@H]2C)[C@@H](CN2C[C@@H]3C[C@H]2CO3)CN1 [Example 85, 2-((2R,5R)-2-(((1S,4S)-2-oxa-5-azabicyclo[2.2.1]heptan-5-yl)methyl)-5-methylpiperazin-1-yl)-1-((S)-7-(4-fluorobenzyl)-6-(hydroxymethyl)-2-methyl-2,3-dihydro-1H-pyrido[2,3-b][1,4]oxazin-1-yl)ethan-1-one]
0.18	0.42	2.9	C[C@@H]1CN(CC(=O)N2c3cc(Cc4ccc(F)cc4)c(O)nc3OC[C@@H]2C)[C@@H](CN2[C@H](C)COC[C@H]2C)CN1 [Example 81]
0.17	0.31	3.2	C[C@@H]1CN(CC(=O)N2c3cc(Cc4ccc(F)cc4)c(C(=O)N[C@@H]4CCOC4)nc3OC[C@@H]2C)[C@@H](CN2[C@H](C)COC[C@H]2C)CN1 [Example 78, (S)-1-(2-((2R,5R)-2-(((3R,5R)-3,5-dimethylmorpholino)methyl)-5-methylpiperazin-1-yl)acetyl)-7-(4-fluorobenzyl)-2-methyl-N—((R)-tetrahydrofuran-3-yl)-2,3-dihydro-1H-pyrido[2,3-b][1,4]oxazine-6-carboxamide]
0.24	0.39	6.8	C[C@@H]1CN(CC(=O)N2c3cc(Cc4ccc(F)cc4)c(C(=O)NC(C)(C)C)nc3OC[C@@H]2C)[C@@H](CN2[C@H](C)COC[C@H]2C)CN1 [Compound 120]
0.26	0.83	18.1	C[C@@H]1CN(CC(=O)N2c3cc(Cc4ccc(F)cc4)c(C(=O)N4CCN(C)CC4)nc3OC[C@@H]2C)[C@@H](CN2[C@H](C)COC[C@H]2C)CN1 [Compound 104]
0.25	0.29	2.3	C[C@@H]1CN(CC(=O)N2c3cc(Cc4ccc(F)cc4)c(C(=O)NCC(F)(F)F)nc3OC[C@@H]2C)[C@@H](CN2[C@H](C)COC[C@H]2C)CN1 [Example 64]
